From PubChem BioAssay AID256 (DTP/NCI, 2004)
Where “and” joins values, the source holds several entries; their conditions need not be identical. Equal entries are not always repeated. Inconclusive results and toxic doses are left out. The calls were made as follows: active = survival T/C of 150% or more; inactive = T/C below 125% in these data.

System: CD2F1 mice, L1210 leukemia ip, survival T/C
Assay: NCI In Vivo Anticancer Drug Screen. Data for tumor model L1210 Leukemia (intraperitoneal) in CD2F1 (CDF1) mice
Conditions: endpoint: mean survival time, higher = longer survival
Method in brief: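 Vehicle-treated tumor-bearing mice served as controls (C) for compound-treated mice (T). Reported figure is T divided by C.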

[1] = dose: 100.0 mg/kg/injection, schedule: Q01DX001 (ip), vehicle: saline with Tween-80
[2] = dose: 200.0 mg/kg/injection, schedule: Q01DX001 (ip), vehicle: saline with Tween-80
[3] = dose: 100.0 mg/kg/injection, schedule: Q04DX003 (ip), vehicle: saline with Tween-80
[4] = dose: 200.0 mg/kg/injection, schedule: Q04DX003 (ip), vehicle: saline with Tween-80
[5] = dose: 400.0 mg/kg/injection, schedule: Q04DX003 (ip), vehicle: saline with Tween-80
[6] = dose: 100.0 mg/kg/injection, schedule: Q01DX001 (ip), vehicle: saline
[7] = dose: 200.0 mg/kg/injection, schedule: Q01DX001 (ip), vehicle: saline
[8] = dose: 400.0 mg/kg/injection, schedule: Q01DX001 (ip), vehicle: saline
[9] = dose: 400.0 mg/kg/injection, schedule: Q01DX001 (ip), vehicle: saline with Tween-80
[10] = dose: 50.0 mg/kg/injection, schedule: Q01DX009 (ip), vehicle: saline with Tween-80
[11] = dose: 100.0 mg/kg/injection, schedule: Q01DX009 (ip), vehicle: saline with Tween-80
[12] = dose: 200.0 mg/kg/injection, schedule: Q01DX009 (ip), vehicle: saline with Tween-80
[13] = dose: 400.0 mg/kg/injection, schedule: Q01DX009 (ip), vehicle: saline with Tween-80

Measured: T/C

CC(O)CC(C)(C)S(=O)(=O)Cc1ccccc1 (configuration not stated)
inactive: dose: 100.0 mg/kg/injection, schedule: Q01DX001 (ip), vehicle: Klucel (hydroxypropylcellulose) (HPC) 101 % of control | dose: 200.0 mg/kg/injection, schedule: Q01DX001 (ip), vehicle: Klucel (hydroxypropylcellulose) (HPC) 86 % of control | dose: 400.0 mg/kg/injection, schedule: Q01DX001 (ip), vehicle: Klucel (hydroxypropylcellulose) (HPC) 93 % of control

NC(Cc1c[nH]c2ccccc12)C(=O)O (configuration not stated)
inactive: dose: 50.0 mg/kg/injection, schedule: Q01DX001 (ip), vehicle: saline with Tween-80 98 % of control | [1] 98 % of control | [2] 101 % of control

Nc1csc(N)n1
inactive: dose: 37.5 mg/kg/injection, schedule: Q01DX009 (ip), vehicle: saline 98 % of control | dose: 75.0 mg/kg/injection, schedule: Q01DX009 (ip), vehicle: saline 98 % of control | dose: 150.0 mg/kg/injection, schedule: Q01DX009 (ip), vehicle: saline 98 % of control

CC1=NCC[N-]C(C)(C)CC(C)=NCC[N-]C(C)(C)C1.[Ni+2].[O-][Cl+3]([O-])([O-])O
inactive: dose: 100.0 mg/kg/injection, schedule: Q04DX003 (ip), vehicle: saline 96 % of control | dose: 200.0 mg/kg/injection, schedule: Q04DX003 (ip), vehicle: saline 97 % of control

CCOC(=O)C(CNc1ccccc1)C(=O)OCC
inactive: [3] 101 % of control | [4] 104 % of control | [5] 104 % of control

CC(=O)OCC1CCCN1C(C)=O (configuration not stated)
inactive: [6] 97 % of control | [7] 97 % of control | [8] 97 % of control

C(=N\N=C\c1ccccc1)/c1ccccc1
inactive: [1] 100 % of control | [3] 103 % of control | [2] 100 % of control | [4] 91 % of control | [9] 97 % of control | [5] 96 % of control

CNC(Cc1ccccc1)c1ccccc1 (configuration not stated)
inactive: dose: 25.0 mg/kg/injection, schedule: Q04DX003 (ip), vehicle: saline with Tween-80 91 % of control | dose: 50.0 mg/kg/injection, schedule: Q04DX003 (ip), vehicle: saline with Tween-80 93 % of control | [3] 95 % of control and 97 % of control

CN(C)c1ccc(/C=[N+](\[O-])c2ccccc2)cc1
inactive: [10] 92 % of control | [11] 103 % of control | [12] 100 % of control

COC1CC(O)C(OS(=O)(=O)c2ccc(C)cc2)C(C)O1 (configuration not stated)
inactive: [6] 112 % of control | [7] 100 % of control | [8] 102 % of control

O=C1CCC(OC(=O)c2ccccc2)CCN1 (configuration not stated)
inactive: [11] 87 % of control | [12] 98 % of control | [13] 90 % of control

C[Si](c1ccccc1)c1ccccc1
inactive: dose: 100.0 mg/kg/injection, schedule: Q01DX001 (ip), vehicle: other 97 % of control | dose: 200.0 mg/kg/injection, schedule: Q01DX001 (ip), vehicle: other 100 % of control | dose: 400.0 mg/kg/injection, schedule: Q01DX001 (ip), vehicle: other 100 % of control

ClC(Cl)=[C](Cl)[Hg][C](Cl)=C(Cl)Cl
inactive: dose: 6.25 mg/kg/injection, schedule: Q01DX009 (ip), vehicle: saline with Tween-80 93 % of control

N.O=S(=O)(O)O.[Al]
inactive: [10] 97 % of control | [11] 91 % of control | [3] 94 % of control | [12] 96 % of control | [4] 99 % of control

ClC1CC2C=CC1C2 (configuration not stated)
inactive: [1] 103 % of control | [2] 100 % of control | [9] 102 % of control

c1ccc(CN(c2ccccc2)C2CCCCC2)cc1
inactive: dose: 100.0 mg/kg/injection, schedule: Q04DX003 (ip), vehicle: Klucel (hydroxypropylcellulose) (HPC) 91 % of control | dose: 200.0 mg/kg/injection, schedule: Q04DX003 (ip), vehicle: Klucel (hydroxypropylcellulose) (HPC) 91 % of control

O=C1OC(=O)C2CC(Br)C(Br)CC12 (configuration not stated)
inactive: [11] 95 % of control | [12] 98 % of control | [13] 91 % of control
